In patent US20200216441A1, “PESTICIDALLY ACTIVE HETEROCYCLIC DERIVATIVES WITH SULFUR CONTAINING SUBSTITUENTS” (SYNGENTA PARTICIPATIONS AG, priority 2017, published 2020):

Columns and labels:
[1] = system: Euschistus heros (Neotropical Brown Stink Bug); assay: whole plant or invertebrate; format: in vivo; details: 120 h, application rate of 200 ppm, N2 nymphs on sprayed soybean leaves, 5 days after infestation, read-out: effect in at least one of the two categories (mortality or growth inhibition)
[2] = system: Diabrotica Balteata (Corn Root Worm); assay: Diabrotica balteata (Corn Root Worm); details: in Zea mays, 96 h, read-out: effect in at least one of the two categories (mortality or growth inhibition)
[3] = system: Plutella xylostella (Diamond Back Moth); assay: whole plant or invertebrate; format: in vivo; details: 120 h, application rate of 200 ppm, L2 larvae on treated artificial diet, 5 days after infestation, read-out: effect in at least one of the two categories (mortality or growth inhibition)
[4] = system: Myzus persicae (Green Peach Aphid); assay: whole plant or invertebrate; details: foliar, 144 h
[5] = system: Bemisia tabaci (Cotton White Fly); details: in Gossypium hirsutum, foliar, 144 h
[6] = system: Myzus persicae (Green Peach Aphid); assay: whole plant or invertebrate; format: in vivo; details: 144 h, test rate of 24 ppm, systemic, roots of infested pea seedlings in test solution, 6 days
[7] = system: Spodoptera littoralis (Egyptian Cotton Leaf Worm); assay: whole plant or invertebrate; details: in Gossypium barbadense, foliar, 72 h, read-out: control (mortality, anti-feeding effect, growth inhibition)

CCSc1cc(OC(C)(C)C)cnc1-c1nc2cc(C(F)(F)F)ncc2n1C [Compound P3, 2-(5-tert-butoxy-3-ethylsulfanyl-2-pyridyl)-3-methyl-6-(trifluoromethyl)imidazo[4,5-c]pyridine]
≥ 80%: percent effect (mortality or growth inhibition) at 200 ppm [1] | mortality at 200 ppm [2] | percent effect (mortality or growth inhibition) at 200 ppm [3] | mortality at 200 ppm [4] | mortality at 200 ppm [5]

CCS(=O)(=O)c1cc(OCS(C)(=O)=O)cnc1-c1nc2cc(C(F)(F)F)ncc2n1C [Compound P9, 2-[3-ethylsulfonyl-5-(methylsulfonylmethoxy)-2-pyridyl]-3-methyl-6-(trifluoromethyl)imidazo[4,5-c]pyridine]
≥ 80%: percent effect (mortality or growth inhibition) at 200 ppm [1] | mortality at 200 ppm [2] | mortality at 24 ppm [6] | mortality at 200 ppm [4] | mortality at 200 ppm [5]

CCOc1cnc(-c2nc3cc(C(F)(F)F)ncc3n2C)c(S(=O)(=O)CC)c1 [Compound P12, 2-(5-ethoxy-3-ethylsulfonyl-2-pyridyl)-3-methyl-6-(trifluoromethyl)imidazo[4,5-c]pyridine]
≥ 80%: mortality at 200 ppm [2] | mortality at 200 ppm [7] | percent effect (mortality or growth inhibition) at 200 ppm [3] | mortality at 24 ppm [6] | mortality at 200 ppm [4]

CCS(=O)(=O)c1cc(OC)cnc1-c1nc2cc(C(F)(F)F)ncc2n1C [Compound P13, 2-(3-ethylsulfonyl-5-methoxy-2-pyridyl)-3-methyl-6-(trifluoromethyl)imidazo[4,5-c]pyridine]
≥ 80%: mortality at 200 ppm [2] | mortality at 200 ppm [7] | percent effect (mortality or growth inhibition) at 200 ppm [3] | mortality at 24 ppm [6] | mortality at 200 ppm [4]

CCS(=O)(=O)c1cc(OC(C)C#N)cnc1-c1nc2cc(C(F)(F)F)ncc2n1C (stereo not drawn) [Compound P22, 2-[[5-ethylsulfonyl-6-[3-methyl-6-(trifluoromethyl)imidazo[4,5-c]pyridin-2-yl]-3-pyridyl]oxy]propanenitrile]
≥ 80%: percent effect (mortality or growth inhibition) at 200 ppm [1] | mortality at 200 ppm [2] | mortality at 200 ppm [7] | percent effect (mortality or growth inhibition) at 200 ppm [3] | mortality at 24 ppm [6] | mortality at 200 ppm [4]

CCS(=O)(=O)c1cc(OCCF)cnc1-c1nc2cc(C(F)(F)F)ncc2n1C [Compound P31, 2-[3-ethylsulfonyl-5-(2-fluoroethoxy)-2-pyridyl]-3-methyl-6-(trifluoromethyl)imidazo[4,5-c]pyridine]
≥ 80%: percent effect (mortality or growth inhibition) at 200 ppm [1] | mortality at 200 ppm [2] | mortality at 200 ppm [7] | percent effect (mortality or growth inhibition) at 200 ppm [3] | mortality at 24 ppm [6] | mortality at 200 ppm [4]

CCC(C#N)(CC)Oc1cnc(-c2nc3cc(C(F)(F)F)ncc3n2C)c(S(=O)(=O)CC)c1 [Compound P44, 2-ethyl-2-[[5-ethylsulfonyl-6-[3-methyl-6-(trifluoromethyl)imidazo[4,5-c]pyridin-2-yl]-3-pyridyl]oxy]butanenitrile]
≥ 80%: percent effect (mortality or growth inhibition) at 200 ppm [1] | mortality at 200 ppm [5]

CCS(=O)(=O)c1cc(O[C@H]2C[C@H](OC)C2)cnc1-c1nc2cc(C(F)(F)F)ncc2n1C [Compound P45, 2-[3-ethylsulfonyl-5-(3-methoxycyclobutoxy)-2-pyridyl]-3-methyl-6-(trifluoromethyl)imidazo[4,5-c]pyridine]
≥ 80%: percent effect (mortality or growth inhibition) at 200 ppm [1] | mortality at 200 ppm [7] | percent effect (mortality or growth inhibition) at 200 ppm [3] | mortality at 24 ppm [6] | mortality at 200 ppm [4]

CCS(=O)(=O)c1cc(O[C@H]2C[C@@H](C#N)C2)cnc1-c1nc2cc(C(F)(F)F)ncc2n1C [Compound P46, 3-[[5-ethylsulfonyl-6-[3-methyl-6-(trifluoromethyl)imidazo[4,5-c]pyridin-2-yl]-3-pyridyl]oxy]cyclobutanecarbonitrile]
≥ 80%: percent effect (mortality or growth inhibition) at 200 ppm [1] | mortality at 200 ppm [2] | percent effect (mortality or growth inhibition) at 200 ppm [3] | mortality at 24 ppm [6] | mortality at 200 ppm [4] | mortality at 200 ppm [5]

CCS(=O)(=O)c1cc(OCCCS(C)(=O)=O)cnc1-c1nc2cc(C(F)(F)F)ncc2n1C [Compound P52, 2-[3-ethylsulfonyl-5-(3-methylsulfonylpropoxy)-2-pyridyl]-3-methyl-6-(trifluoromethyl)imidazo[4,5-c]pyridine]
≥ 80%: percent effect (mortality or growth inhibition) at 200 ppm [1] | mortality at 24 ppm [6] | mortality at 200 ppm [4] | mortality at 200 ppm [5]

CCS(=O)(=O)c1cc(OCCCSC)cnc1-c1nc2cc(C(F)(F)F)ncc2n1C [Compound P56, 2-[3-ethylsulfonyl-5-(3-methylsulfanylpropoxy)-2-pyridyl]-3-methyl-6-(trifluoromethyl)imidazo[4,5-c]pyridine]
≥ 80%: percent effect (mortality or growth inhibition) at 200 ppm [1] | mortality at 200 ppm [2] | mortality at 24 ppm [6] | mortality at 200 ppm [4] | mortality at 200 ppm [5]

CCS(=O)(=O)c1cc(OCOC)cnc1-c1nc2cc(C(F)(F)F)ncc2n1C [Compound P68, 2-[3-ethylsulfonyl-5-(methoxymethoxy)-2-pyridyl]-3-methyl-6-(trifluoromethyl)imidazo[4,5-c]pyridine]
≥ 80%: percent effect (mortality or growth inhibition) at 200 ppm [1] | mortality at 200 ppm [2] | mortality at 200 ppm [7] | percent effect (mortality or growth inhibition) at 200 ppm [3] | mortality at 24 ppm [6] | mortality at 200 ppm [4]

CCSc1cc(OCC(F)F)cnc1-c1nc2cc(C(F)(F)F)ncc2n1C [Compound P81, 2-[5-(2,2-difluoroethoxy)-3-ethylsulfanyl-2-pyridyl]-3-methyl-6-(trifluoromethyl)imidazo[4,5-c]pyridine]
≥ 80%: percent effect (mortality or growth inhibition) at 200 ppm [1] | mortality at 200 ppm [2] | mortality at 200 ppm [7] | percent effect (mortality or growth inhibition) at 200 ppm [3] | mortality at 24 ppm [6]

CCS(=O)(=O)c1cc(OC(C)C)cnc1-c1nc2cc(SC(F)F)ncc2n1C [Compound P86, 6-(difluoromethylsulfanyl)-2-(3-ethylsulfonyl-5-isopropoxy-2-pyridyl)-3-methyl-imidazo[4,5-c]pyridine]
≥ 80%: percent effect (mortality or growth inhibition) at 200 ppm [1] | mortality at 200 ppm [2] | mortality at 200 ppm [7] | percent effect (mortality or growth inhibition) at 200 ppm [3] | mortality at 24 ppm [6] | mortality at 200 ppm [4]

CCS(=O)(=O)c1cc(OCS(C)(=O)=O)ccc1-c1nc2cc(C(F)(F)F)ncc2n1C [Compound P105, 2-[2-ethylsulfonyl-4-(methylsulfonylmethoxy)phenyl]-3-methyl-6-(trifluoromethyl)imidazo[4,5-c]pyridine]
≥ 80%: percent effect (mortality or growth inhibition) at 200 ppm [1] | mortality at 200 ppm [2] | mortality at 24 ppm [6] | mortality at 200 ppm [4] | mortality at 200 ppm [5]

CCS(=O)(=O)c1cc(OCSC)ccc1-c1nc2cc(C(F)(F)F)ncc2n1C [Compound P106, 2-[2-ethylsulfonyl-4-(methylsulfanylmethoxy)phenyl]-3-methyl-6-(trifluoromethyl)imidazo[4,5-c]pyridine]
≥ 80%: percent effect (mortality or growth inhibition) at 200 ppm [1] | mortality at 200 ppm [2] | mortality at 24 ppm [6] | mortality at 200 ppm [4] | mortality at 200 ppm [5]

CCS(=O)(=O)c1cc(OCC(F)F)ccc1-c1nc2cc(C(F)(F)F)ncc2n1C [Compound P107, 2-[4-(2,2-difluoroethoxy)-2-ethylsulfonyl-phenyl]-3-methyl-6-(trifluoromethyl)imidazo[4,5-c]pyridine]
≥ 80%: percent effect (mortality or growth inhibition) at 200 ppm [1] | mortality at 200 ppm [2] | mortality at 200 ppm [7] | percent effect (mortality or growth inhibition) at 200 ppm [3] | mortality at 24 ppm [6] | mortality at 200 ppm [4]
